The term IC50 denotes the point on the concentration scale where inhibition reaches its midpoint. Read a low IC50 as inhibition by little substance.

Calls of active or inactive are those of the source. The calls are words filed in the database; no cut-off is given here.

In ChEMBL document CHEMBL2069196, “Synthesis and evaluation of novel 4-[(3H,3aH,6aH)-3-phenyl)-4,6-dioxo-2-phenyldihydro-2H-pyrrolo[3,4-d]isoxazol-5(3H,6H,6aH)-yl]benzoic acid derivatives as potent acetylcholinesterase inhibitors and anti-amnestic agents” (Bioorg Med Chem, 2012) one finds Activity and IC50 data, which are given here for 44 compounds.

The subject of the first assay is Mus musculus. Nature of the assay: Antiamnesic activity in scopolamine-induced amnesia mouse model assessed as increase in time spent in target quadrant at 25 mg/kg, ip measured on day 5 by Morris water maze test. The assay is classed as functional, organism-based. On the set-up: dose 25 mg/kg.
On to `COc1cc2c(cc1OC)C(=O)C(CC1CCN(Cc3ccccc3)CC1)C2` (centres undefined), for which the outcome was Active.

The next assay addresses T1, Acetylcholinesterase (Rattus norvegicus, UniProt P37136).
T1 sequence (P37136 whole entry): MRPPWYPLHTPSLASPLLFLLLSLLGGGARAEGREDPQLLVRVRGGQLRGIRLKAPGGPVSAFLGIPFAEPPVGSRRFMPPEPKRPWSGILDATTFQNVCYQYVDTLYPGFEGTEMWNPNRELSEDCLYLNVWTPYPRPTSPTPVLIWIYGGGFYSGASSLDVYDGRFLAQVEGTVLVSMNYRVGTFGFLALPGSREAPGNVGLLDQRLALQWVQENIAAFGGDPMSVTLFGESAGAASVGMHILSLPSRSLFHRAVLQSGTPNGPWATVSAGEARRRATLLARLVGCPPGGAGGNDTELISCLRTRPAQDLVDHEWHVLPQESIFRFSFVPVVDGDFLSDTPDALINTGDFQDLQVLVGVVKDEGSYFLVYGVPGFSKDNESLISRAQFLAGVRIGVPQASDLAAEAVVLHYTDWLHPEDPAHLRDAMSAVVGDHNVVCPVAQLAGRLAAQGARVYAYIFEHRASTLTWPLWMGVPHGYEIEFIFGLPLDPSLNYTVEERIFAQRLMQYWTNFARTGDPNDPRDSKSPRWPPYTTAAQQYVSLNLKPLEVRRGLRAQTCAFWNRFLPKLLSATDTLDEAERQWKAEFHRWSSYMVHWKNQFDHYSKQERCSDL
Nature of the assay: Inhibition of AChE activity in rat brain homogenate using acetylthiocholine as substrate by Ellman's method. Type of assay: tissue-based. (In general: Ellman's reagent forms a yellow product with free thiols.)
As to `Cc1ccc(N2O[C@@H]3C(=O)N(c4ccc(C(=O)O)cc4)C(=O)[C@@H]3[C@@H]2c2ccccc2O)cc1`, the IC50 is 23.2 nM. That is a double-digit nanomolar value.

Consider `COc1ccc([C@H]2[C@@H]3C(=O)N(c4ccc(C(=O)O)cc4)C(=O)[C@@H]3ON2c2ccccc2)cc1`, for which the IC50 is 19.1 nM.

On to `Cc1ccc(N2O[C@H]3C(=O)N(c4ccc(C(=O)O)cc4)C(=O)[C@H]3[C@@H]2c2ccc(Cl)cc2)cc1`, for which the IC50 came out at 20.4 nM.

In turn, `Cc1ccc(N2O[C@H]3C(=O)N(c4ccc(C(=O)O)cc4)C(=O)[C@H]3[C@@H]2c2ccc([N+](=O)[O-])cc2)cc1` came in with an IC50 of 24.1 nM. This IC50 and that of the compound before are within 1.5-fold of each other.

Regarding `O=C(O)c1ccc(N2C(=O)[C@H]3[C@H](ON(c4ccccc4)[C@H]3c3ccccc3Cl)C2=O)cc1` (relative stereo), the IC50 worked out at 21.8 nM.

Take `O=C(O)c1ccc(N2C(=O)[C@H]3[C@H](ON(c4ccccc4)[C@H]3c3ccccc3)C2=O)cc1` (relative stereo): the IC50 came out at 23.9 nM. This IC50 and that of the compound before are within 1.5-fold of each other.

Turning to `O=C(O)c1ccc(N2C(=O)[C@H]3[C@H](ON(c4ccccc4)[C@H]3c3ccccc3O)C2=O)cc1` (relative stereo), half-maximal inhibition (IC50) required 23.9 nM.

`O=C(O)c1ccc(N2C(=O)[C@H]3[C@H](ON(c4ccccc4)[C@H]3c3ccc(O)cc3)C2=O)cc1` (relative stereo) displayed an IC50 of 22.5 nM.

`O=C(O)c1ccc(N2C(=O)[C@H]3[C@H](ON(c4ccccc4)[C@H]3c3cccc(Cl)c3)C2=O)cc1` (relative stereo) displayed an IC50 of 20.1 nM.

`O=C(O)c1ccc(N2C(=O)[C@H]3[C@H](ON(c4ccccc4)[C@H]3c3ccc(Cl)cc3)C2=O)cc1` (relative stereo): half-maximal inhibition (IC50) was put at 19.7 nM.

The compound `COc1ccccc1[C@H]1[C@H]2C(=O)N(c3ccc(C(=O)O)cc3)C(=O)[C@H]2ON1c1ccccc1` (relative stereo) displayed an IC50 of 19.2 nM.

As for `COc1cccc([C@H]2[C@H]3C(=O)N(c4ccc(C(=O)O)cc4)C(=O)[C@H]3ON2c2ccccc2)c1` (relative stereo), 19.1 nM corresponded to half-maximal inhibition (IC50).

The compound `COc1ccc([C@H]2[C@H]3C(=O)N(c4ccc(C(=O)O)cc4)C(=O)[C@H]3ON2c2ccccc2)cc1` (relative stereo) came in with an IC50 of 18.8 nM. This IC50 and that of the compound before are within 1.5-fold of each other.

In turn, `O=C(O)c1ccc(N2C(=O)[C@H]3[C@H](ON(c4ccccc4)[C@H]3c3ccccc3[N+](=O)[O-])C2=O)cc1` (relative stereo) showed an IC50 of 26.1 nM. The IC50 values of the last two compounds are within 1.5-fold of each other.

`O=C(O)c1ccc(N2C(=O)[C@H]3[C@H](ON(c4ccccc4)[C@H]3c3ccc([N+](=O)[O-])cc3)C2=O)cc1` (relative stereo) gave an IC50 of 25.8 nM.

In turn, `Cc1ccc(N2O[C@@H]3C(=O)N(c4ccc(C(=O)O)cc4)C(=O)[C@@H]3[C@@H]2c2ccccc2)cc1` (relative stereo) came in with an IC50 of 22.8 nM.

`Cc1ccc(N2O[C@@H]3C(=O)N(c4ccc(C(=O)O)cc4)C(=O)[C@@H]3[C@@H]2c2ccc(O)cc2)cc1` (relative stereo) displayed an IC50 of 21.9 nM.

The compound `Cc1ccc(N2O[C@@H]3C(=O)N(c4ccc(C(=O)O)cc4)C(=O)[C@@H]3[C@@H]2c2ccccc2Cl)cc1` (relative stereo) returned an IC50 of 21.3 nM. The IC50 values of the last two compounds are within 1.5-fold of each other.

In turn, `Cc1ccc(N2O[C@@H]3C(=O)N(c4ccc(C(=O)O)cc4)C(=O)[C@@H]3[C@@H]2c2cccc(Cl)c2)cc1` (relative stereo) displayed a half-maximal inhibitory concentration (IC50) of 22.2 nM.

As to `Cc1ccc(N2O[C@@H]3C(=O)N(c4ccc(C(=O)O)cc4)C(=O)[C@@H]3[C@@H]2c2ccc(Cl)cc2)cc1` (relative stereo), the half-maximal inhibitory concentration (IC50) is 19.2 nM. The IC50 values of the last two compounds are within 1.5-fold of each other.

In turn, `COc1ccccc1[C@H]1[C@H]2C(=O)N(c3ccc(C(=O)O)cc3)C(=O)[C@H]2ON1c1ccc(C)cc1` (relative stereo) gave a 50% inhibitory concentration (IC50) of 19.1 nM.

`COc1cccc([C@H]2[C@H]3C(=O)N(c4ccc(C(=O)O)cc4)C(=O)[C@H]3ON2c2ccc(C)cc2)c1` (relative stereo) yielded an IC50 of 18.8 nM.

`Cc1ccc(N2O[C@@H]3C(=O)N(c4ccc(C(=O)O)cc4)C(=O)[C@@H]3[C@@H]2c2ccccc2[N+](=O)[O-])cc1` (relative stereo): half-maximal inhibition (IC50) required 24.3 nM.

For `Cc1ccc(N2O[C@@H]3C(=O)N(c4ccc(C(=O)O)cc4)C(=O)[C@@H]3[C@@H]2c2ccc([N+](=O)[O-])cc2)cc1` (relative stereo), half-maximal inhibition (IC50) was put at 23.4 nM.

On to `O=C(O)c1ccc(N2C(=O)[C@@H]3[C@@H](ON(c4ccccc4)[C@H]3c3ccccc3)C2=O)cc1` (relative stereo), for which the IC50 turned out to be 24.4 nM.

`O=C(O)c1ccc(N2C(=O)[C@@H]3[C@@H](ON(c4ccccc4)[C@H]3c3ccccc3O)C2=O)cc1` (relative stereo): 24.8 nM corresponded to half-maximal inhibition (IC50).

In turn, `O=C(O)c1ccc(N2C(=O)[C@@H]3[C@@H](ON(c4ccccc4)[C@H]3c3ccc(O)cc3)C2=O)cc1` (relative stereo) showed an IC50 of 22.7 nM. This IC50 and that of the compound before are within 1.5-fold of each other.

Take `O=C(O)c1ccc(N2C(=O)[C@@H]3[C@@H](ON(c4ccccc4)[C@H]3c3ccccc3Cl)C2=O)cc1` (relative stereo): the IC50 stood at 22.4 nM.

`O=C(O)c1ccc(N2C(=O)[C@@H]3[C@@H](ON(c4ccccc4)[C@H]3c3cccc(Cl)c3)C2=O)cc1` (relative stereo) had an IC50 of 21.8 nM.

As to `O=C(O)c1ccc(N2C(=O)[C@@H]3[C@@H](ON(c4ccccc4)[C@H]3c3ccc(Cl)cc3)C2=O)cc1` (relative stereo), the half-inhibitory concentration (IC50) amounted to 20.9 nM.

As for `COc1ccccc1[C@H]1[C@@H]2C(=O)N(c3ccc(C(=O)O)cc3)C(=O)[C@@H]2ON1c1ccccc1` (relative stereo), half-maximal inhibition (IC50) was put at 20.6 nM.

The compound `COc1cccc([C@H]2[C@@H]3C(=O)N(c4ccc(C(=O)O)cc4)C(=O)[C@@H]3ON2c2ccccc2)c1` (relative stereo) yielded a half-inhibitory concentration (IC50) of 20.5 nM.

Compound `O=C(O)c1ccc(N2C(=O)[C@@H]3[C@@H](ON(c4ccccc4)[C@H]3c3ccccc3[N+](=O)[O-])C2=O)cc1` (relative stereo) registered an IC50 of 26.9 nM.

Regarding `O=C(O)c1ccc(N2C(=O)[C@@H]3[C@@H](ON(c4ccccc4)[C@H]3c3ccc([N+](=O)[O-])cc3)C2=O)cc1` (relative stereo), the IC50 is 26.4 nM. This IC50 and that of the compound before are within 1.5-fold of each other.

In turn, `Cc1ccc(N2O[C@H]3C(=O)N(c4ccc(C(=O)O)cc4)C(=O)[C@H]3[C@@H]2c2ccccc2)cc1` (relative stereo) yielded an IC50 of 22.4 nM.

`Cc1ccc(N2O[C@H]3C(=O)N(c4ccc(C(=O)O)cc4)C(=O)[C@H]3[C@@H]2c2ccccc2O)cc1` (relative stereo) showed an IC50 of 24.1 nM.

Take `Cc1ccc(N2O[C@H]3C(=O)N(c4ccc(C(=O)O)cc4)C(=O)[C@H]3[C@@H]2c2ccc(O)cc2)cc1` (relative stereo): the half-maximal inhibitory concentration (IC50) was 22.5 nM.

Compound `Cc1ccc(N2O[C@H]3C(=O)N(c4ccc(C(=O)O)cc4)C(=O)[C@H]3[C@@H]2c2ccccc2Cl)cc1` (relative stereo) had a 50% inhibitory concentration (IC50) of 22.1 nM.

For `Cc1ccc(N2O[C@H]3C(=O)N(c4ccc(C(=O)O)cc4)C(=O)[C@H]3[C@@H]2c2cccc(Cl)c2)cc1` (relative stereo), the 50% inhibitory concentration (IC50) was 23.8 nM.

For `COc1ccccc1[C@H]1[C@@H]2C(=O)N(c3ccc(C(=O)O)cc3)C(=O)[C@@H]2ON1c1ccc(C)cc1` (relative stereo), the midpoint of inhibition, the IC50, lay at 20.2 nM.

In turn, `COc1cccc([C@H]2[C@@H]3C(=O)N(c4ccc(C(=O)O)cc4)C(=O)[C@@H]3ON2c2ccc(C)cc2)c1` (relative stereo) had a half-maximal inhibitory concentration (IC50) of 19.9 nM.

`COc1ccc([C@H]2[C@@H]3C(=O)N(c4ccc(C(=O)O)cc4)C(=O)[C@@H]3ON2c2ccc(C)cc2)cc1` (relative stereo) came in with an IC50 of 18 nM. The IC50 values of the last two compounds are within 1.5-fold of each other.

Compound `Cc1ccc(N2O[C@H]3C(=O)N(c4ccc(C(=O)O)cc4)C(=O)[C@H]3[C@@H]2c2ccccc2[N+](=O)[O-])cc1` (relative stereo) returned an IC50 of 25.2 nM.
